# Reference: patent US7375109B2, “Glycine-substituted thieno[2,3-d]pyrimidines with combined LH and FSH agonistic activity” (N.V. Organon, priority 2001, dated 2008)
# Assays:
# human LH receptor = target: T1, human LH receptor (Homo sapiens, UniProt P22888); assay: CHO-LH in vitro bioactivity (CRE-luciferase reporter); assay type: cell-based; conditions: CHO cells stably transfected with human LH receptor
# T1 construct: expressed in transfected cells; host or cells: Chinese Hamster Ovary (CHO) cells, stably transfected; cotransfected with CRE-luciferase reporter
# Description: (§1) It has been shown that compounds of the above mentioned formula I show agonistic LH and FSH activity. […] Typically the FSH activity ranges from an activity of about 0.1% of the LH agonist stimulation to about 10% of the LH agonist stimulation.
# (§2) LH agonistic activity of compounds were tested in Chinese Hamster Ovary (CHO) cells stably transfected with the human LH receptor and cotransfected with a cAMP responsive element (CRE)/promotor directing the expression of a firefly luciferase reporter gene. Binding of ligand to the Gs-coupled LH receptor will result in an increase of cAMP, which in turn will induce an increased transactivation of the luciferase reporter construct. The luciferase signal was quantified using a luminescence counter. For test compounds, EC50 values (concentration of test compound causing half-maximal (50%) stimulation) were calculated. For that purpose the software program GraphPad PRISM, version 3.0 (GraphPad software Inc., San Diego) was used.
# human FSH receptor = target: T2, human FSH receptor (Homo sapiens, UniProt P23945); assay: CHO-FSH in vitro bioactivity (CRE-luciferase reporter); assay type: cell-based; conditions: CHO cells transfected with human FSH receptor and luciferase reporter gene
# T2 construct: expressed in transfected cells; host or cells: CHO cells transfected with human FSH receptor and CRE-luciferase reporter
# T2 sequence (P23945 18-695): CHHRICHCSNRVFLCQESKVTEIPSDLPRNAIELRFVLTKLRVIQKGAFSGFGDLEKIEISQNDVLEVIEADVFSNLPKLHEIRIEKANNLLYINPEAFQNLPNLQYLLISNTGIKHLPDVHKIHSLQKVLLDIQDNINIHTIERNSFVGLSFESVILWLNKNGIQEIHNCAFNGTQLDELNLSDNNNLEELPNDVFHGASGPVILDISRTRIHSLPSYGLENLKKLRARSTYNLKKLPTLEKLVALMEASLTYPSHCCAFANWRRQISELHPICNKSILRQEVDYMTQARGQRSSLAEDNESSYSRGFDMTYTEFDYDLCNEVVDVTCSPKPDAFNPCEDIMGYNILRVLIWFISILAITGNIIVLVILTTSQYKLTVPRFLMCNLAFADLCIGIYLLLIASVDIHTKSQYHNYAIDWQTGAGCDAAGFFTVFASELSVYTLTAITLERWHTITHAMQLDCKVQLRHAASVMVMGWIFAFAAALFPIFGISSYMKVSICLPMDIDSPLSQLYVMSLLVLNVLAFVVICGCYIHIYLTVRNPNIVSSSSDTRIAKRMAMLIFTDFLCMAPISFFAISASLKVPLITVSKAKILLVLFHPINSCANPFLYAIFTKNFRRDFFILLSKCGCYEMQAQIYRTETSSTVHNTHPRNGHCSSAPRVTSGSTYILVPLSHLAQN
# Description: as §1, §2
# In a similar way FSH agonistic activity of compounds were tested in CHO cells transfected with the luciferase reporter gene and the human FSH receptor.
# immature female mice = assay: In vivo bioactivity: ovulation induction in immature mice; conditions: immature female mice primed with urinary FSH (Humegon 12.5 IU/animal); 50 mg/kg about 48 hours later; killed 24 hours after treatment
# Description: To measure LH in vivo activity of compounds, ovulation induction in immature mice can be studied. In this assay immature female mice are primed with urinary FSH and approximately 48 hours later treated with a LH agonistic compound. The animals are killed after LH agonist treatment and the number of ova in the oviduct is microscopically assessed.
# To measure in vivo activity of LH/FSH receptor agonistic compounds ovulation induction in immature mice were studied. In this assay immature female mice were primed with urinary FSH (Humegon 12.5 IU/animal). Approximately 48 hours later the animals were treated with a LH/FSH agonistic compound, the preparation of which is described in examples 1, 4, 9 and 17, at a dose-level of 50 mg/kg. The animals were killed 24 hours after LH/FSH agonist treatment and the number of ova in the oviduct was microscopically assessed. On average 10-15 animals were tested. The mean number of ova amounted 8 with the exception of the compound of example 17 (which was 0.4).
# T1 sequence (P22888 27-699): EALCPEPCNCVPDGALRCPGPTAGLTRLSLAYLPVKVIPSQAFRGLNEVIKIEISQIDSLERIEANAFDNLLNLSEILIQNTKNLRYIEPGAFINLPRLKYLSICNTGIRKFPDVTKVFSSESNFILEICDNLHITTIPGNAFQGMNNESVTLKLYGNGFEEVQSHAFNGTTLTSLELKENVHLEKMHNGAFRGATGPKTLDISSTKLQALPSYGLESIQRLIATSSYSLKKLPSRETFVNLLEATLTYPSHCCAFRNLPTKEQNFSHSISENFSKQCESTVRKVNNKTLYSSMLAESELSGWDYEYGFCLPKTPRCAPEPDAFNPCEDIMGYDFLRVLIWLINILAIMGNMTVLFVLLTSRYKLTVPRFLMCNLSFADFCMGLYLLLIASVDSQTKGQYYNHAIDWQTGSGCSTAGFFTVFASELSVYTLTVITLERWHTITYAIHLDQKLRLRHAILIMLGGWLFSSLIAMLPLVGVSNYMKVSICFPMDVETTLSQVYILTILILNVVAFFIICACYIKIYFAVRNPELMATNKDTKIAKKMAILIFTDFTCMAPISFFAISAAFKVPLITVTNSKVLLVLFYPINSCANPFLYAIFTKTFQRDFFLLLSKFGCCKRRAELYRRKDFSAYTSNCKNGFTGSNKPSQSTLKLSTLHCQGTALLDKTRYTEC
EC50 (human LH receptor),EC50 (human FSH receptor),Compound,mean number of ova in the oviduct (immature female mice)
7 nM,101 nM,"CCN(CCOC)CC(=O)Nc1cccc(-c2nc(SC)nc3sc(C(=O)NC(C)(C)C)c(N)c23)c1 [Example 4, tert-Butyl 5-amino-2-methylthio-4-(3-((N-ethyl-N-(2-methoxyethyl)-glycinyl)-amino)-phenyl)-thieno[2,3-d]pyrimidine-6-carboxamide]",8
4.82 nM,606 nM,"CCN(CCO)CC(=O)Nc1cccc(-c2nc(-c3ccccc3)nc3sc(C(=O)NC(C)(C)C)c(N)c23)c1 [Example 9, tert-Butyl 5-amino-2-phenyl-4-(3-((N-ethyl-N-(2-hydroxyethyl)-glycinyl)-amino)-phenyl)-thieno[2,3-d]pyrimidine-6-carboxamide]",8
10.4 nM,1250 nM,"CCNc1nc(-c2cccc(NC(=O)CN(CC)CCOC)c2)c2c(N)c(C(=O)NC(C)(C)C)sc2n1 [Example 17, tert-Butyl 5-amino-2-ethylamino-4-(3-((N-ethyl-N-(2-methoxyethyl)-glycinyl)-amino)-phenyl)-thieno[2,3-d]pyrimidine-6-carboxamide]",0.4
